13 molecules from ChEMBL document CHEMBL1130556, “Synthesis and activity of brefeldin a analogs as inducers of cancer cell differentiation and apoptosis” (Bioorg Med Chem Lett, 1997) can be followed below.

What all share (format): functional, cell-based
Common to all, as to conditions: Homo sapiens

Assay [1] concerns HCT-116. The experiment in a line: Effect on apoptotic DNA fragmentation to differentitiate HCT 116 cells, at a concentration of 4.1 uM, 1.2 ug/ml was determined; + = Potent.
Assay [2] relates to HCT-116. The experiment in a line: Effect on apoptotic DNA fragmentation to differentitiate HCT 116 cells, at a concentration of 6.4 uM, 2.0 ug/ml was determined; - = Not potent.
Assay [3] deals with HCT-116. The assay can be described thus: Effect on apoptotic DNA fragmentation to differentitiate HCT 116 cells, at a concentration of 0.11 uM, 0.03 ug/ml was determined; + = Potent.
The subject of assay [4] is HCT-116. The assay can be described thus: Effect on apoptotic DNA fragmentation to differentitiate HCT 116 cells, at a concentration of 3.5 uM, 1.0 ug/ml was determined; - = Not potent.
Assay [5] deals with HCT-116. The experiment in a line: Effect on apoptotic DNA fragmentation to differentitiate HCT 116 cells, at a concentration of 3.4 uM, 1.0 ug/ml was determined; - = Not potent.
For assay [6], the system named is HCT-116. The assay can be described thus: Effect on apoptotic DNA fragmentation to differentitiate HCT 116 cells, at a concentration of 0.85 uM, 0.25 ug/ml was determined; - = Not potent.
Assay [7] concerns HCT-116. The assay can be described thus: Effect on apoptotic DNA fragmentation to differentitiate HCT 116 cells, at a concentration of 0.16 uM, […] was determined; + = Potent.
The test system of assay [8] is HCT-116. The experiment in a line: Effect on apoptotic DNA fragmentation to differentitiate HCT 116 cells, at a concentration of 1.6 uM, 0.5 ug/ml was determined; + = Potent.
Assay [9] deals with HCT-116. The assay can be described thus: Effect on apoptotic DNA fragmentation to differentitiate HCT 116 cells, at a concentration of 3.2 uM, 1.0 ug/ml was determined; - = Not potent.
Assay [10] has as its system HCT-116. The experiment in a line: Effect on apoptotic DNA fragmentation to differentitiate HCT 116 cells, at a concentration of 0.27 uM, 0.1 ug/ml was determined; + = Potent.
For assay [11], the system named is HCT-116. The assay can be described thus: Effect on apoptotic DNA fragmentation to differentitiate HCT 116 cells, at a concentration of 3.6 uM, 1.0 ug/ml was determined; - = Non potent.
In assay [12] the test system is HCT-116. The assay can be described thus: Effect on apoptotic DNA fragmentation to differentitiate HCT 116 cells, at a concentration of 5.2 uM, 2.0 ug/ml was determined; - = Not potent.

On to `C[C@H]1CCC[C@@H]2O[C@@H]2[C@@H]2C[C@H](O)C[C@H]2[C@H](O)/C=C/C(=O)O1`, for which, in assay [1], the DNA fragmentation entry is “Potent”. With `COC(=O)/C=C/[C@@H](O)[C@@H]1C[C@@H](O)C[C@H]1/C=C\CCC[C@@H](C)O`, the DNA fragmentation entry in assay [2] is “Not potent”. `C[C@H]1CCC/C=C\[C@@H]2C[C@H](O)C[C@H]2[C@H](O)/C=C/C(=O)O1`: the DNA fragmentation entry in [3] was “Potent”. As for `C[C@H]1CCCCC[C@@H]2C[C@H](O)C[C@H]2[C@H](O)CCC(=O)O1`, the DNA fragmentation entry in assay [4] was “Not potent”. As to `C[C@@H](O)CCC/C=C\[C@@H]1C[C@H](O)C[C@H]1[C@H](O)/C=C/C(=O)O`, the DNA fragmentation entry in assay [5] was “Not potent”. Consider `CO[C@@H]1/C=C/C(=O)O[C@@H](C)CCC/C=C\[C@@H]2C[C@H](O)C[C@H]21`, for which, in assay [6], the DNA fragmentation result is “Not potent”. For the molecule `CC(=O)O[C@@H]1C[C@H]2[C@H](O)/C=C/C(=O)O[C@@H](C)CCC/C=C\[C@@H]2C1`, the DNA fragmentation result in assay [7] was “Potent”. In the case of `CC(=O)O[C@@H]1/C=C/C(=O)O[C@@H](C)CCC/C=C\[C@@H]2C[C@H](O)C[C@H]21`, in assay [8], the DNA fragmentation result was “Potent”.

`CO[C@@H]1C[C@@H]2[C@H](/C=C\CCC[C@H](C)OC(=O)/C=C/[C@H]2OC)C1`: the DNA fragmentation entry in assay [9] was “Not potent”. `CC(=O)O[C@@H]1C[C@@H]2[C@H](/C=C\CCC[C@H](C)OC(=O)/C=C/[C@H]2OC(C)=O)C1`: the DNA fragmentation result in [10] was “Potent”.

As to `C[C@H]1CCC/C=C\[C@@H]2CC(=O)C[C@H]2[C@H](O)/C=C/C(=O)O1`, the DNA fragmentation entry in [11] is listed as “Non potent”. On to `C[C@@H](O)CCC/C=C\[C@@H]1C[C@H](O)C[C@H]1[C@H](O)/C=C/C(=O)OCc1ccccc1`, for which, in assay [12], the DNA fragmentation result is “Not potent”.

`C[C@H]1CCC/C=C\[C@@H]2CC(=O)C[C@H]2C(=O)CCC(=O)O1`: the DNA fragmentation entry in assay [11] is on record as “Non potent”.
